Source: US20040235070A1, “Immune reactivity to expressed activated oncogenes for diagnosis and treatment of malignancy” (Washington Research Foundation, priority 1990, published 2004)

Tested on: lymphocytes from mice immunized with the Arg-12 peptide
Experiment: Proliferation assay of lymph node lymphocytes from mice immunized with ras Arg-12 peptide
Assay type: cell-based
Details: lymphocytes from C57BL/6 mice immunized with a single dose of Arg-12 peptide; FIG. 1
Description: FIG. 1 graphically illustrates that specific T cell responses to point-mutated ras peptide can be generated by in vivo priming on day 0 with 50 μg of a peptide of 12 amino acid length constructed identically to murine ras-p21 (amino acids 5-16) but with the substitution of arginine for the glycine normally found at position 12 (i.e., position 12 of ras-p21 but position 8 of the peptide). This peptide is denoted as ras p5-16[R12] or as ras-R12. Mice were immunized with ras-R12 peptide plus adjuvant or with adjuvant alone. […]
Lymphocytes obtained from immunized mice were suspended in culture medium (consisting of RPMI 1640 Gibco supplemented with 10% fetal calf serum, 2 mM L-glutamine, 100 U/ml streptomycin, 100 U/ml penicillin and 2.5×10^−5 M 2-mercaptoethanol) and were plated in 96-well flat bottom microtiter plates (Costar Co., Cambridge, Mass.) at 1×10^5 cells per well. […] Lymphocytes from individual wells were collected onto filter paper disks using a multi-channel harvester then transferred to scintillation fluid in individual counting tubes. β emission was measured using a Beckmann liquid scintillation spectrophotometer. […]

Q: With “KLVVVGARGVGK [Arg-12 peptide, residues 5-16 of ras p21 with arginine for glycine at position 12]” as the sequence, how does the “proliferative response in vitro” value read?
A: The value was “proliferate specifically”.
